Eight compounds from patent US20130345268A1, “Methods and Compositions for the Treatment of RAS Associated Disorders” (The Trustees of Dartmouth College, priority 2009, published 2013) can be followed below.

Experiment [1] concerns T265 (NF1 mutant MPNST/sarcoma cells). The experiment is described as follows: In vitro growth of NF1 mutant MPNST cells, alamar blue, dose-response. The experiment is classed as cell-based. To be noted: Homo sapiens. As for the experimental part:
(§1) The NF1−/− MPNST line T265 used for the screen provides two additional readouts for the chemical approaches to suppress the phenotypes of NFI loss: activated Ras (Mahller et al., 2005) and activated MAPK (FIG. 1). In vitro growth assays of the two cell lines (NF1 positive and NF1 negative) are scaled down to 384 well plates. An Evotec Technologies plate::explorer uHTS system is used. MPNST cell lines T265 and STS26T in logarithmic growth phase are plated in separate 384 well plates at a density of 500 cells per well in Dulbecco's modified Eagle's medium (DMEM; Fisher Scientific; Pittsburgh, Pa.) supplemented with 10% Fetal Bovine Serum (Harlan; Indianapolis, Ind.) containing vehicle (DMSP, “Dimethyl Sulfoxide”) only or one of 13,031 candidate compounds at a concentration of 10 micromolar, a concentration of drug shown not to cause cell death of many human cell lines. The candidate compounds are selected to represent a cross section of compounds covering the diversity space resident in the available library, restricted to drug-like compounds, but evenly and consistently representative across this realm and representative of commercially available compounds. Compounds targeting GPCRs, kinases and other targets of known medical interest are also included. The cells are incubated with the compounds or 5 μg/ml doxorubicin as a positive control for 2 days. Growth is monitored by using the alamar blue method (Alley et al. 1988; Ahmed et al. 1994.) Metabolic activity of cells results in reduction of alamar blue and a large increase in alamar blue fluorescence, which correlates with cell number. Candidate compounds causing interference with fluorescence are eliminated. […] Appropriate control samples and statistical analyses are used.
(§2) Confirmed hits that decreased viability of both cell lines were identified as possible therapeutic agents. A smaller population of hits selectively affected the non-NF1 cell line. These seven confirmed “hits,” or potential therapeutic agents, were tested using the same assay method at 10 concentrations, in triplicate, to give a dose-response and to determine the AC50 (the concentration at which 50% of the maximum activity or inhibition is achieved) for each compound. Using the initial screen, seven compounds are identified showing a significant differential growth inhibition of the mutant NF1 cells relative to wild type NF1 cells.

Experiment [2] relates to STS26T (26T, NF1 wild type MPNST/sarcoma cells). The experiment is described as follows: In vitro growth of NF1 wild type MPNST cells, alamar blue, dose-response. To be noted: for IC50: Homo sapiens, STS-26T. The experiment is classed as cell-based, human. As for the experimental part: as §1, §2
Experiment [3] concerns U-87 MG GBM (glioblastoma) cells. The experiment is described as follows: Growth of glioblastoma cells in vitro, Alamar Blue. The experiment is classed as cell-based. The conditions noted are these: Homo sapiens, 72 h, U87-MG cells, three days, normalized to DMSO-treated wells, three independent experiments. As for the experimental part: FIG. 4 depicts the effects of two compounds active in NF1−/− MPNST cells on the growth of U-87 MG GBM (glioblastoma) cells in vitro. FIG. 4a depicts the effects of the compound of Formula I(a); FIG. 4b depicts the effects of the compound of Formula IV(c). U87-MG cells were seeded in 96 well plates at a density of 1000 per well in DMEM containing 10% fetal bovine serum. The next day, medium was removed and fresh medium containing 0.1% DMSO or compound was added back. Plates were incubated for three days at 37° C., 5% CO2. Cell growth was assessed with Alamar Blue with values normalized to the DMSO-treated wells. Values are mean of three wells. The AC50 for the compound of Formula Ia was 3.77 micromolar +/−0.7. The AC50 for the compound of Formula IV(c) was 0.97 micromolar +/−0.1. AC50 was calculated using data from three independent experiments.
A general note: The colour change of resazurin is a common sign of viable cells or microbes.

The test system of experiment [4] is cells lacking Ira2 and Erg6. Put plainly: Growth of strains lacking Ira2 and Erg6, optical density at 595 nm. The conditions noted are these: Synthetic Complete media, 32C, 24 h, OD 595 nm. The experiment is classed as cell-based. As for the experimental part: FIG. 3. […] Strains were grown overnight in Synthetic Complete media. 75 μL of culture at a starting optical density of 0.1 were added to a 96 well plate containing 75 μL of Synthetic Complete media with twice the desired final concentration of compound in 1% DMSO. Plates were incubated in a humidified 32C chamber, and scanned on an optical density plate reader at 595 nm after 24 h. The bars represent the mean of three wells, and the error bars represent ±2× standard error.

Setting [5] is: 48 h, Table 3, T265 cells, alamar blue, 2 days, 10 concentrations in triplicate, read-out: T265 IC50.
[6] abbreviates: Table 4, NF1 mutant sarcoma cells (T265), read-out: IC50, T265.
Setting [7] is: 48 h, Table 3, STS26T cells, alamar blue, 2 days, 10 concentrations in triplicate, read-out: 26T IC50.
[8] abbreviates: Table 4, NF1 wild type (26T) sarcoma cells, read-out: IC50, 26T.

Read-outs that look alike come from different tables or passages of the source.

As usually defined, the IC50 is the concentration needed to halve the response being measured. The AC50 is the concentration at which the activity in the assay is half-maximal. High values mean weaker potency, low ones greater potency.

Regarding `N=C(N)SCc1cn(-c2ccccc2)nc1-c1cccc(Br)c1` [Formula Ia], the IC50 in experiment [1] (setting [5]) was 1.3 µM; in experiment [1] (setting [6]) it was 1.3 µM; in experiment [2] (setting [7]) it was 50.3 µM; in experiment [2] (setting [8]), 50.3 µM. The compound also showed an AC50 in experiment [3] of 3.77 µM. Besides, the Inhibition of growth entry in experiment [4] was “Inhibition of growth”.
With `Cc1ccc(Cn2c(=N)n(CC(=O)c3ccc(Br)cc3)c3ccccc32)cc1` [VII], the IC50 in experiment [1] (setting [5]) turned out to be 0.078 µM; in experiment [2] (setting [7]), 0.056 µM.
`Cc1ccc(Cn2c(=N)n(CC(O)c3ccc(Br)cc3)c3ccccc32)cc1` (centres unmarked) [VIII]: the half-inhibitory concentration (IC50) was found to be 1.1 µM in experiment [1] (setting [5]), 1.1 µM in experiment [1] (setting [6]), 19.5 µM in experiment [2] (setting [7]) and 19.5 µM in experiment [2] (setting [8]).
As to `Cc1ccc(NC(=O)C2=C(c3ccccc3)S(=O)(=O)CCS2(=O)=O)cc1` [Formula IV(c)], half-maximal activity in experiment [3] (AC50) was put at 0.97 µM.
Regarding `CCN(CC)C(=S)SCC(=O)n1c(C)cc(-c2ccccc2F)c1C` [XI], the results for the IC50 in experiment [1] (setting [5]) and in experiment [2] (setting [7]) were 1.7 µM and 1 µM, respectively.
In the case of `CCc1cc(-c2ccccc2OS(=O)(=O)c2ccc3ccccc3c2)nn1CCNCCc1ccc(OC)c(OC)c1` [V], the IC50 in experiment [1] (setting [5]) stood at 2.8 µM; in experiment [1] (setting [6]), 2.9 µM; in experiment [2] (setting [7]) it was 22.8 µM; in experiment [2] (setting [8]), 22.9 µM.
As for `CCCCc1ccc2nc(-c3ccccc3)cc(C(=O)NC(C(=O)NC(C)CCCN(CC)CC)C(C)C)c2c1` (centres unmarked) [III], the IC50 in experiment [1] (setting [5]) stood at 3 µM. Also, the “26T IC50” value in experiment [2] (Table 3, STS26T cells, alamar blue, 2 days, 10 concentrations in triplicate) is reported as “No Effect”.
For the compound `CCc1cc(-c2ccccc2OS(=O)(=O)c2ccc3ccccc3c2)nn1CCNCCOc1ccccc1` [VI], the IC50 in experiment [1] (setting [5]) was 4.5 µM; in experiment [2] (setting [7]) it was 1.9 µM.
